ChEMBL document CHEMBL3616453, “Recent progress in the development of small-molecule glucagon receptor antagonists” (Bioorg Med Chem Lett, 2015)

Columns and labels:
[1] = molecular target: T1, Glucagon receptor (Homo sapiens, UniProt P47871); assay: Antagonist activity at human glucagon receptor expressed in HEK293 cell membranes assessed as inhibition of glucagon-stimulated intracellular cAMP formation preincubated for 30 mins followed by glucagon stimulation measured after 5 mins by TR-FRET analysis; assay type: functional, cell-based
T1 sequence (P47871 whole entry): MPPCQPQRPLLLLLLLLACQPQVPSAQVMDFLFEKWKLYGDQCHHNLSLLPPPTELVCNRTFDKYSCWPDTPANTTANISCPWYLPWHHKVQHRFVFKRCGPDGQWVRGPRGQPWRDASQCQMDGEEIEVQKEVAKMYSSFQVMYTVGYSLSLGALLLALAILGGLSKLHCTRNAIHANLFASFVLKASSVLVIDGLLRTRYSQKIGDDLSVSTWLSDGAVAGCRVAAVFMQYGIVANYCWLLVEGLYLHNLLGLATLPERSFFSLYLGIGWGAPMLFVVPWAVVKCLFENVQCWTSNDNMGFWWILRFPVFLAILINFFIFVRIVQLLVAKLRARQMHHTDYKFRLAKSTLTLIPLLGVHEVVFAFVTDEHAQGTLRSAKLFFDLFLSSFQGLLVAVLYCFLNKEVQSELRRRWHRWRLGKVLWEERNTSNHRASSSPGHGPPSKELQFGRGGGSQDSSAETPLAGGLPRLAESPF

[2] = molecular target: T1, Glucagon receptor; assay: Displacement of [125I]-glucagon from full length human glucagon receptor expressed in HEK293 cell membranes after 2 hrs by scintillation counting analysis
[3] = molecular target: T1, Glucagon receptor; assay: Antagonist activity at human glucagon receptor expressed in CHOK1 cells assessed as inhibition of glucagon-stimulated intracellular cAMP formation preincubated for 20 mins followed by glucagon stimulation measured after 30 mins by fluorescent plate reader analysis; assay type: functional, cell-based; settings: CHO-K1
[4] = Half life in human; assay type: ADME, organism-based; settings: in vivo
[5] = tested on: Homo sapiens; assay: Antidiabetic activity in type-2 diabetic human model assessed as reduction in HbA1c level at 20 mg, qd administered for 12 weeks measured after post last dose relative to control; assay type: functional; set-up: scale not given: the % may be the effect or the level left
[6] = tested on: Homo sapiens; assay: Antidiabetic activity in type-2 diabetic human model assessed as reduction in HbA1c level at 80 mg, qd administered for 12 weeks measured after post last dose relative to control; assay type: functional; set-up: scale not given: the % may be the effect or the level left
[7] = organism: Homo sapiens; assay: Hypoglycemic activity in type-2 diabetic human assessed as time required to glucose recovery from 50 mg/dl to >= 63 mg/dl at 1 g in presence of beta blocker propranolol (reference value: 71 min); assay type: functional
[8] = tested on: Homo sapiens; assay: Antidiabetic activity in type-2 diabetic human model assessed as reduction in HbA1c level at 60 mg, qd administered for 12 weeks measured after post last dose relative to control; assay type: functional; set-up: scale not given: the % may be the effect or the level left
[9] = organism: Homo sapiens; assay: Hypoglycemic activity in human assessed as time required to glucose recovery from 50 mg/dl to >= 70 mg/dl at 200 mg (reference value: 33.3 min); assay type: functional
[10] = tested on: Homo sapiens; assay: Antidiabetic activity in type-2 diabetic human model assessed as reduction in HbA1c level at 40 mg, qd administered for 12 weeks measured after post last dose relative to control; assay type: functional; set-up: scale not given: the % may be the effect or the level left
[11] = organism: Homo sapiens; assay: Hypoglycemic activity in human assessed as time required to glucose recovery from 50 mg/dl to >= 70 mg/dl at 1 g (reference value: 33.3 min); assay type: functional
[12] = molecular target: T1, Glucagon receptor; assay: Displacement of [125I]-glucagon from human glucagon receptor expressed in HEK293 cell membranes at 10 uM after 2 hrs by microplate scintillation counting analysis relative to control
[13] = tested on: Homo sapiens; assay: In vivo inhibition of gucagon receptor in type-2 diabetic human model at 25 mg, bid measured over 24 hrs relative to control; assay type: functional
[14] = tested on: Homo sapiens; assay: In vivo inhibition of gucagon receptor in type-2 diabetic human model at 10 mg, qd measured during day time relative to control; assay type: functional
[15] = tested on: Homo sapiens; assay: In vivo inhibition of gucagon receptor in type-2 diabetic human model at 6 mg, qd measured during night time relative to control; assay type: functional
[16] = organism: Homo sapiens; assay: Toxicity in type-2 diabetic human model assessed as increase in LDL-C level at 25 mg, bid relative to control; assay type: organism-based; settings: in vivo
[17] = organism: Homo sapiens; assay: Antidiabetic activity in type-2 diabetic human model assessed as decrease in 24 hrs weighted mean glucose level at 10 mg, qd measured during day time; assay type: functional
[18] = organism: Homo sapiens; assay: Antidiabetic activity in type-2 diabetic human model assessed as decrease in fasting plasma glucose level at 25 mg, bid; assay type: functional
[19] = organism: Homo sapiens; assay: Antidiabetic activity in type-2 diabetic human model assessed as decrease in fasting plasma glucose level at 6 mg, qd measured during night time; assay type: functional
[20] = organism: Homo sapiens; assay: Antidiabetic activity in type-2 diabetic human model assessed as decrease in fasting plasma glucose level at 10 mg, qd measured during day time; assay type: functional
[21] = molecular target: T1, Glucagon receptor; assay: Antagonist activity at recombinant human glucagon receptor expressed in CHO cells assessed as inhibition of glucagon-stimulated intracellular cAMP formation preincubated for 30 mins followed by glucagon stimulation measured after 45 mins by LANCE assay; assay type: functional, cell-based
[22] = molecular target: T1, Glucagon receptor; assay: Displacement of [125I]-glucagon from human glucagon receptor expressed in Chem-1 cell membranes after 6 to 10 hrs by scintillation proximity assay

SMILES: Cc1cc(Cl)ccc1-c1ccc(NCc2cc(Cl)cc(C(F)(F)F)c2-c2ccc(C(=O)NCCC(=O)O)nc2)cc1
- IC50 [1]: 4 nM
- Ki [2]: 20 nM

SMILES: Cc1cc2cc(F)ccc2nc1NC(c1ccc(C(=O)NCCC(=O)O)cc1)C1CC(C)(C)C1 (stereo unspecified)
- Kb [3]: 33 nM

SMILES: COc1ccc2cc(-c3cc(-c4cc(Cl)cc(Cl)c4)nn3[C@@H](C)c3ccc(C(=O)NCCC(=O)O)cc3)ccc2c1 [MK-0893]
- half-life [4]: 60 h
- Activity [5]: 0.6%
- Activity [6]: 1.8%
- Time [7]: 103 min
- Activity [8]: 1.5%
- Time [9]: 45 min
- Activity [10]: 1%
- Time [11]: 59.1 min

SMILES: Cc1cc(-n2cc3c(n2)CCCC3)ccc1C(CCC(F)(F)F)Nc1ccc(C(=O)N2CCC[C@@H](C(=O)O)C2)cn1 (stereo partly specified)
- inhibition [12]: 90%

SMILES: Cc1cc(C(F)(F)F)ccc1-c1ccc(NCc2ccc(C(F)(F)F)cc2-c2ccc(C(=O)NCCC(=O)O)nc2)cc1Cl
- IC50 [1]: 22 nM
- Ki [2]: 17 nM

SMILES: CCC[C@H](c1ccc(C(=O)NCCC(=O)O)cc1)[C@H](c1ccc(Cl)cc1)c1c[nH]c2c(F)cc(C)cc12 [MK-3577]
- half-life [4]: 4 h
- inhibition (INH) [13]: >80%
- inhibition (INH) [14]: <50%
- inhibition (INH) [15]: <50%
- Activity [16]: 10%
- Activity [17]: 18.8 mg/dL
- Activity [18]: 31.7 mg/dL
- Activity [19]: 17.5 mg/dL
- Activity [20]: 7.2 mg/dL

SMILES: CC(C)(C)CC[C@H](c1ccc(C(=O)NCCC(=O)O)cc1)N1C(=O)C(c2cccc(F)c2)=NC12CCC([Si](C)(C)C)CC2 (stereo partly specified)
- IC50 [21]: 22 nM

SMILES: Cc1cc(C(F)(F)F)ccc1-c1ccc(NCc2cc(C(C)C)cc(C(F)(F)F)c2-c2ccc(C(=O)NCCC(=O)O)cc2)cc1Cl
- Ki [2]: 30 nM

SMILES: CC1(C)CC(C(Nc2cnc(-n3cc(C(F)(F)F)cn3)nc2)c2ccc(C(=O)NCCC(=O)O)cc2)C1 (racemic)
- Kb [3]: 19 nM

SMILES: CC(C)(C)CCOc1cccc(C2=NC3(CCC(C(C)(C)C)CC3)N([C@H](CCC(C)(C)C)c3ccc(C(=O)NCc4nn[nH]n4)cc3)C2=O)c1 (stereo partly specified)
- IC50 [21]: 61 nM

SMILES: Cc1cc(-c2ncc(C(F)(F)F)cn2)ccc1C(CCC(F)(F)F)Nc1ccc(C(=O)N2CCC[C@@H](C(=O)O)C2)cc1 (stereo partly specified)
- inhibition [12]: 91%

SMILES: Cc1cc2ccccc2nc1NC(c1ccc(C(=O)NCCC(=O)O)cc1)C1CC(C)(C)C1 (stereo unspecified)
- Kb [3]: 23 nM

SMILES: CCC[C@H](Nc1ccc(-n2cc(-c3ccccc3)cn2)cc1)c1ccc(C(=O)NCCC(=O)O)cc1
- Kb [3]: 9.5 nM
- Ki [22]: 26 nM
